Measured values from US20260262643A1, “HERBICIDAL BENZOXAZINES” (FMC CORPORATION, priority 2022, published 2026).

Key:
[1] = tested on: barnyardgrass; assay: Test A preemergence; type: in vivo, Echinochloa crusgalli; details: visual injury after 10 days, 0 to 100 scale, 0 is no effect, 100 is complete control
Excerpt: (§1) Seeds of plant species selected from barnyardgrass (Echinochloa crusgalli), blackgrass (Alopecurus myosuroides), corn (Zea mays), foxtail, giant (giant foxtail, Setaria faberi), goosegrass (Eleusine indica), kochia (Bassia scoparia), oat, wild (wild oat, Avena fatua), pigweed, palmer (palmer amaranth, palmer pigweed, Amaranthus palmeri), Pigweed, Redroot (redroot pigweed, Amaranthus retroflexus), ragweed (common ragweed, Ambrosia artemisiifolia), ryegrass, Italian (italian ryegrass, Lolium multiflorum), soybean (Glycine max), and wheat (Triticum aestivum) were planted into a blend of loam soil and sand and treated preemergence with a directed soil spray using test chemicals formulated in a non-phytotoxic solvent mixture which included a surfactant. At the same time, plants selected from these crops and weed species and also galium (catchweed bedstraw, Galium aparine) and horseweed (Erigeron canadensis) were planted in pots containing the same blend of loam soil and sand and treated with postemergence applications of test chemicals formulated in the same manner. Plants ranged in height from 2 to 10 cm and were in the one- to two-leaf stage for the postemergence treatment. Treated plants and untreated controls were maintained in a greenhouse for 10 days, after which time all treated plants were compared to untreated controls and visually evaluated for injury. Plant response ratings, summarized in Table A, are based on a 0 to 100 scale where 0 is no effect and 100 is complete control. A dash (-) response means no test result.

[2] = tested on: blackgrass; assay: Test A preemergence; type: in vivo, Alopecurus myosuroides; details: 0 to 100 scale
In short: (§2)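 Plants were grown in loam and sand and treated preemergence or postemergence (one- to two-leaf stage, 2–10 cm) with compound in solvent plus surfactant. Response was scored against untreated controls after 10 greenhouse days, where 0 means no effect and 100 complete control.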

[3] = tested on: corn; assay: Test A preemergence; type: in vivo, Zea mays; details: 0 to 100 scale
In short: as §2

[4] = tested on: foxtail, giant; assay: Test A preemergence; type: in vivo, Setaria faberi; details: 0 to 100 scale
In short: as §2

[5] = tested on: kochia; assay: Test A preemergence; type: in vivo, Bassia scoparia; details: 0 to 100 scale
In short: as §2

[6] = tested on: oat, wild; assay: Test A preemergence; type: in vivo, Avena fatua; details: 0 to 100 scale
In short: as §2

[7] = tested on: pigweed, palmer; assay: Test A preemergence; type: in vivo, Amaranthus palmeri; details: 0 to 100 scale
In short: as §2

[8] = tested on: ragweed; assay: Test A preemergence; type: in vivo, Ambrosia artemisiifolia; details: 0 to 100 scale
In short: as §2

[9] = tested on: ryegrass, Italian; assay: Test A preemergence; type: in vivo, Lolium multiflorum; details: 0 to 100 scale
In short: as §2

[10] = tested on: soybean; assay: Test A preemergence; type: in vivo, Glycine max; details: 0 to 100 scale
In short: as §2

[11] = tested on: wheat; assay: Test A preemergence; type: in vivo, Triticum aestivum; details: 0 to 100 scale
In short: as §2

[12] = tested on: barnyardgrass; assay: Test A postemergence; type: in vivo, Echinochloa crusgalli; details: postemergence, 10 days
Excerpt: as §1

[13] = tested on: blackgrass; assay: Test A postemergence; type: in vivo, Alopecurus myosuroides; details: postemergence, 10 days
In short: as §2

[14] = tested on: corn; assay: Test A postemergence; type: in vivo, Zea mays; details: postemergence, 10 days
In short: as §2

[15] = tested on: foxtail, giant; assay: Test A postemergence; type: in vivo, Setaria faberi; details: postemergence, 10 days
In short: as §2

[16] = tested on: kochia; assay: Test A postemergence; type: in vivo, Bassia scoparia; details: postemergence, 10 days
In short: as §2

[17] = tested on: oat, wild; assay: Test A postemergence; type: in vivo, Avena fatua; details: postemergence, 10 days
In short: as §2

[18] = tested on: pigweed, palmer; assay: Test A postemergence; type: in vivo, Amaranthus palmeri; details: 500 g ai/ha, postemergence, 10 days, visual injury, 0 to 100 scale (0 no effect, 100 complete control)
In short: as §2

[19] = tested on: ragweed; assay: Test A postemergence; type: in vivo, Ambrosia artemisiifolia; details: postemergence, 10 days
In short: as §2

[20] = tested on: ryegrass, Italian; assay: Test A postemergence; type: in vivo, Lolium multiflorum; details: postemergence, 10 days
In short: as §2

[21] = tested on: soybean; assay: Test A postemergence; type: in vivo, Glycine max; details: postemergence, 10 days
In short: as §2

[22] = tested on: wheat; assay: Test A postemergence; type: in vivo, Triticum aestivum; details: postemergence, 10 days
In short: as §2

[23] = tested on: galium; assay: Test A postemergence; type: in vivo, Galium aparine; details: 500 g ai/ha, postemergence, 10 days, visual injury, 0 to 100 scale (0 no effect, 100 complete control)
In short: as §2

[24] = tested on: horseweed; assay: Test A postemergence; type: in vivo, Erigeron canadensis; details: postemergence, 10 days
In short: as §2

[25] = tested on: barnyardgrass; assay: Test B flooded paddy test; type: in vivo, Echinochloa crus-galli; details: 250 g ai/ha, Flood, 13 days, 0 to 100 scale (0 no effect, 100 complete control)
In short: (§3)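 Two-leaf plants, 3 cm flood, in-water application, 13-day greenhouse hold, visual 0–100 rating vs untreated checks.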

[26] = tested on: ducksalad; assay: Test B flooded paddy test; type: in vivo, Heteranthera limosa; details: 250 g ai/ha, Flood, 13 days, 0 to 100 scale (0 no effect, 100 complete control)
In short: as §3

[27] = tested on: rice; assay: Test B flooded paddy test; type: in vivo, Oryza sativa; details: 250 g ai/ha, Flood, 13 days, 0 to 100 scale (0 no effect, 100 complete control)
In short: as §3

[28] = tested on: sedge, umbrella; assay: Test B flooded paddy test; type: in vivo, Cyperus difformis; details: 250 g ai/ha, Flood, 13 days, 0 to 100 scale (0 no effect, 100 complete control)
In short: as §3

[29] = 500 g ai/ha, visual injury after 10 days, 0 is no effect, 100 is complete control
[30] = 125 g ai/ha, 0 to 100 scale, 0 no effect, 100 complete control
[31] = 500 g ai/ha, visual injury, 0 to 100 scale (0 no effect, 100 complete control)

Cc1nc(C)n(-c2cccc(C(=O)N3C[C@H](C)Oc4c(Cl)cccc43)c2)n1 [Compound 142]
40: Plant response rating, Kochia [5, 29] | Soybean plant response rating [21, 30] | Plant response rating, Soybean [21, 31]
50: Plant response rating, Barnyardgrass ([1]; 500 g ai/ha) | Plant response rating, Ryegrass, Italian [9, 29] | Plant response rating, Kochia [16, 31]
80: Plant response rating, Foxtail, Giant [15, 31]
90: Plant response rating, Foxtail, Giant [4, 29]
60: Plant response rating, Blackgrass [13, 31]
20: Plant response rating, Pigweed, Palmer [7, 29] | Plant response rating, Pigweed, Palmer [18] | Plant response rating, Ragweed [19, 31] | Plant response rating, Ryegrass, Italian [20, 31]
0: Plant response rating, Blackgrass ([2]; 125 g ai/ha) | Plant response rating, Corn ([3]; 125 g ai/ha) | Plant response rating, Kochia ([5]; 125 g ai/ha) | Plant response rating, Oat, Wild ([6]; 125 g ai/ha) | Plant response rating, Oat, Wild [6, 29] | Plant response rating, Pigweed, Palmer ([7]; 125 g ai/ha) | Plant response rating, Ragweed ([8]; 125 g ai/ha) | Plant response rating, Ragweed [8, 29] | Plant response rating, Soybean ([10]; 125 g ai/ha) | Plant response rating, Soybean [10, 29] | Plant response rating, Wheat ([11]; 125 g ai/ha) | Plant response rating, Wheat [11, 29] | Blackgrass plant response rating [13, 30] | Oat, Wild plant response rating [17, 30] | Plant response rating, Oat, Wild [17, 31] | Ragweed plant response rating [19, 30] | Ryegrass, Italian plant response rating [20, 30] | Horseweed plant response rating [24, 30] | Plant response rating, Horseweed [24, 31] | Plant response rating, Barnyardgrass [25] | Plant response rating, Ducksalad [26] | Plant response rating, Rice [27] | Plant response rating, Sedge, Umbrella [28]
10: Plant response rating, Corn [3, 29] | Barnyardgrass plant response rating [12, 30] | Plant response rating, Barnyardgrass [12, 31] | Corn plant response rating [14, 30] | Plant response rating, Corn [14, 31] | Kochia plant response rating [16, 30] | Wheat plant response rating [22, 30] | Plant response rating, Wheat [22, 31]
30: Plant response rating, Barnyardgrass ([1]; 125 g ai/ha) | Plant response rating, Blackgrass [2, 29] | Plant response rating, Foxtail, Giant ([4]; 125 g ai/ha) | Plant response rating, Ryegrass, Italian ([9]; 125 g ai/ha) | Foxtail, Giant plant response rating [15, 30] | Plant response rating, Galium [23]
